Source: ChEMBL document CHEMBL1201862, “PubChem BioAssay data set” (2004)
The source made the active and inactive calls.

What was measured:
Caspase-3 = target: T1, Caspase-3 (Homo sapiens, UniProt P42574); assay type: functional;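 further: Dose-response selectivity test against caspase-3 for candidate inhibitors of sentrin-specific proteases (SENPs)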
T1 sequence (P42574 whole entry): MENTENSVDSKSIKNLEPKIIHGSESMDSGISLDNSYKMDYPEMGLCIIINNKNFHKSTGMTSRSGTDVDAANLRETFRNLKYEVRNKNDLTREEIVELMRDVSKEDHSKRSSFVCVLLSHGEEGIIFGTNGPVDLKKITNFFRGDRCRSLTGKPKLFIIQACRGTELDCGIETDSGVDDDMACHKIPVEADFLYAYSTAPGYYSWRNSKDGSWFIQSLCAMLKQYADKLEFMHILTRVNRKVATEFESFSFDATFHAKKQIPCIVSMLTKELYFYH

[1] = target: T2, Sentrin-specific protease 7 (Homo sapiens, UniProt Q9BQF6); assay type: functional;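 further: Luminescence-based dose-response confirmation of ultra-high-throughput screening hits, measuring inhibition of SENP7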
T2 sequence (Q9BQF6 whole entry): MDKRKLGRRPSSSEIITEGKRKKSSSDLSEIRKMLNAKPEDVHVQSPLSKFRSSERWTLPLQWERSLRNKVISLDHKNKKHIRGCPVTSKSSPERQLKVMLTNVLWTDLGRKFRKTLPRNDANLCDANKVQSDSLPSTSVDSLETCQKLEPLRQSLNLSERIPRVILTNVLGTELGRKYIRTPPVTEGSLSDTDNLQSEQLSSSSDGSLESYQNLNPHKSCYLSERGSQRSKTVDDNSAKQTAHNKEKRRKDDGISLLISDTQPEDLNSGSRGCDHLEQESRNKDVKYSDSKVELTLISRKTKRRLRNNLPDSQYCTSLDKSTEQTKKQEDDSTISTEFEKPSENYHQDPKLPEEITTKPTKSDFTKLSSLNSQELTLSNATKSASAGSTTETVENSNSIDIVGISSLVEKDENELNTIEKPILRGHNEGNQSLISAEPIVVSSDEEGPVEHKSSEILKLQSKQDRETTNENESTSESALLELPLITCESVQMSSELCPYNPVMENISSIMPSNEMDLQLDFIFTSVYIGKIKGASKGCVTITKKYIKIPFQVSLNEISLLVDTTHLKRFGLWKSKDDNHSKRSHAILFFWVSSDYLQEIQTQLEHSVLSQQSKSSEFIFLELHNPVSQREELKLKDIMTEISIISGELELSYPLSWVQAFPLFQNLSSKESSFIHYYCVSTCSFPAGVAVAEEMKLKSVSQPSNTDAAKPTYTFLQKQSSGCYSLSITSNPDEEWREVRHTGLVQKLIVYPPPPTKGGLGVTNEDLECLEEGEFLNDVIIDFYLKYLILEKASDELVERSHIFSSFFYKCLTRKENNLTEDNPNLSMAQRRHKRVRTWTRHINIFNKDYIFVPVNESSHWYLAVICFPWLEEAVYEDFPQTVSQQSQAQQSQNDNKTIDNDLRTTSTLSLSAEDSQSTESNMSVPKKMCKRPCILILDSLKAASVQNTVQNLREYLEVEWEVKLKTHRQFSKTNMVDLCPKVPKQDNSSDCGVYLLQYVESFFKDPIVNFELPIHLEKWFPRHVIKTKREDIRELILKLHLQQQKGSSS

[2] = target: T3, Sentrin-specific protease 6 (Homo sapiens, UniProt Q9GZR1); assay type: functional;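 further: Luminescence-based dose-response confirmatory assay of SENP6 inhibition, following up an ultra-high-throughput screen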
T3 sequence (Q9GZR1 whole entry): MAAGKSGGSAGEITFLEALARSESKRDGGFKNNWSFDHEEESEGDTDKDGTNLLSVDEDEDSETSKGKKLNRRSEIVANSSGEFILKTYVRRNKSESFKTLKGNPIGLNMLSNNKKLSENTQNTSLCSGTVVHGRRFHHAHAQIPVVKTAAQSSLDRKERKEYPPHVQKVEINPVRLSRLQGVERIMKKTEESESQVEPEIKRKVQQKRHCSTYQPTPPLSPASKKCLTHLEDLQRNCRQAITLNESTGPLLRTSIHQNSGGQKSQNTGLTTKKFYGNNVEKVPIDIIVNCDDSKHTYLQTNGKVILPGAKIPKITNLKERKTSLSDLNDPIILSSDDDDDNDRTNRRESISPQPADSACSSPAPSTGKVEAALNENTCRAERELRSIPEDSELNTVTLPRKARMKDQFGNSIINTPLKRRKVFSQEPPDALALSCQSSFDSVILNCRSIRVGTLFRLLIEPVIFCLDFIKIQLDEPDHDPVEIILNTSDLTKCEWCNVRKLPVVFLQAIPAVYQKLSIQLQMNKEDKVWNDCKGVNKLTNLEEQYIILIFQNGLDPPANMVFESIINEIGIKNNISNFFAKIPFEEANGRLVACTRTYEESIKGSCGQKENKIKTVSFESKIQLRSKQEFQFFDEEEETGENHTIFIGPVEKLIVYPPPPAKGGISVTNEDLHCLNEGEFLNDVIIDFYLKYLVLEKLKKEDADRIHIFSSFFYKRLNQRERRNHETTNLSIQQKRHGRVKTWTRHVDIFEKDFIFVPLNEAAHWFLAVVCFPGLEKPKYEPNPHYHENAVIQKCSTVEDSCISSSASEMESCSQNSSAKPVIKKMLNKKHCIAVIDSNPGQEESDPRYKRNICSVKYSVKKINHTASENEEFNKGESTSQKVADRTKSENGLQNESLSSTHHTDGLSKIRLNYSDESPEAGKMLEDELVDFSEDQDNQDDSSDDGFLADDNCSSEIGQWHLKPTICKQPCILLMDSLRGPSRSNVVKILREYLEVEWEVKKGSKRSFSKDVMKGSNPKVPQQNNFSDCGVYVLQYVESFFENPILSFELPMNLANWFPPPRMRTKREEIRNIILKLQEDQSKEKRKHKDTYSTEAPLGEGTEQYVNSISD

[3] = target: T4, Sentrin-specific protease 8 (Homo sapiens, UniProt Q96LD8); assay type: functional;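 further: luminescence read-out of SENP8 inhibition, dose-response confirmation following an ultra-high-throughput screen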
T4 sequence (Q96LD8 whole entry): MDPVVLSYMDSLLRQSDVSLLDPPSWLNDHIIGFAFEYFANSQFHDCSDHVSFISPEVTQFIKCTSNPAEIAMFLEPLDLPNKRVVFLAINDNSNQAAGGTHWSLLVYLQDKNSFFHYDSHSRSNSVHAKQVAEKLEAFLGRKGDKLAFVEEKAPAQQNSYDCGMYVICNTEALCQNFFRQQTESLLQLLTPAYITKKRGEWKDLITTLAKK

[4] = target: T5, Microphthalmia-associated transcription factor (Homo sapiens, UniProt O75030); assay: reducers of TRPM1 reporter luminescence, concentration series – cell-based, SK-MEL-5, cherry-picked, set 3, MITF inhibitor project, dose response (AID 493073); assay type: functional;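 further: SK-MEL-5 melanoma cells with luciferase driven by the MITF target TRPM1 promoter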
T5 sequence (O75030 whole entry): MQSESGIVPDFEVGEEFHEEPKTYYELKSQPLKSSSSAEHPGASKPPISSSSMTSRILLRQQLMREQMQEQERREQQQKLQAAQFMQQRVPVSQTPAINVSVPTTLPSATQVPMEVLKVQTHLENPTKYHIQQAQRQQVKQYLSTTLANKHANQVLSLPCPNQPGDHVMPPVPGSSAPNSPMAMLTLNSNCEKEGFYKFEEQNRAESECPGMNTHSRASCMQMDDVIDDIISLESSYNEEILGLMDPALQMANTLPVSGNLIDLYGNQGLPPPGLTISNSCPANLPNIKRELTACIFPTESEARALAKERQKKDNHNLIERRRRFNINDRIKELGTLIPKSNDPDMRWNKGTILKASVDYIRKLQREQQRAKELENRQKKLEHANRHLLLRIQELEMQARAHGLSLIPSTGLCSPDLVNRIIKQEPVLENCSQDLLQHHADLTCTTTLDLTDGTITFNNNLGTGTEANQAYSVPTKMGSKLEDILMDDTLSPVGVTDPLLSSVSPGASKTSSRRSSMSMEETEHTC

[5] = target: Apoptotic protease-activating factor 1 (Homo sapiens, UniProt O14727); assay type: functional
Chain of Apoptotic protease-activating factor 1 (O14727 whole entry): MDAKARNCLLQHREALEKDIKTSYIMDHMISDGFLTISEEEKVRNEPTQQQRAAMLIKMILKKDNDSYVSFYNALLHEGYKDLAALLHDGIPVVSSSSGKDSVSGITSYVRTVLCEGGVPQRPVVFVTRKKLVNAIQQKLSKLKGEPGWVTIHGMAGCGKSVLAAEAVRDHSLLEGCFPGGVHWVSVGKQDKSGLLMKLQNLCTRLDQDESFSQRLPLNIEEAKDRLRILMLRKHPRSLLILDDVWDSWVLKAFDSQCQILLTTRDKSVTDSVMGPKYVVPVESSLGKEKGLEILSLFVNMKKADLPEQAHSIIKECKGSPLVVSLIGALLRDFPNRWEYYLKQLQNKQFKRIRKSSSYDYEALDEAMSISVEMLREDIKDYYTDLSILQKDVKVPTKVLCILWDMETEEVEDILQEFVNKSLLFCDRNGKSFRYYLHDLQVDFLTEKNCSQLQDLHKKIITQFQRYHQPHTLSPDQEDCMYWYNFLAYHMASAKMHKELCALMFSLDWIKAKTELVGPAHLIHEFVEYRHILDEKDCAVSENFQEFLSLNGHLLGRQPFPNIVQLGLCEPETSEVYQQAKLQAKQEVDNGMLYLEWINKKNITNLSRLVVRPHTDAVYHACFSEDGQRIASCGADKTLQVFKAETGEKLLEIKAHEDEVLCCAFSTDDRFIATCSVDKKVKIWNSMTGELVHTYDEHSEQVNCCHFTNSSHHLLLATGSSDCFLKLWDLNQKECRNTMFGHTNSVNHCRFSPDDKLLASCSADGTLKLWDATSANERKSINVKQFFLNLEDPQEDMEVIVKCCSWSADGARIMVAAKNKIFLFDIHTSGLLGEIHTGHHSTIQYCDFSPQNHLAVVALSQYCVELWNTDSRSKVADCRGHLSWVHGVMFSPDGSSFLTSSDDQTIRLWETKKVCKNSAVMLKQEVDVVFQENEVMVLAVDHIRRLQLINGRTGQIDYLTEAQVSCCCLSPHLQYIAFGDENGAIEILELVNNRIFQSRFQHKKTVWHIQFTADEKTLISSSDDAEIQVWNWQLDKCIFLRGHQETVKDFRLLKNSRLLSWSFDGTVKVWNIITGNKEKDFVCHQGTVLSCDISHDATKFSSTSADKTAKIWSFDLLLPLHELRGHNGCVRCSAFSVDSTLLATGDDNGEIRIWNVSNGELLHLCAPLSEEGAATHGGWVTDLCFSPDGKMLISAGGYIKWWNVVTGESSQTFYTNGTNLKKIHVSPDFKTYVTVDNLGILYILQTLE

[6] = target: ALK tyrosine kinase receptor (Homo sapiens, UniProt Q9UM73); assay type: functional;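 further: ALK tested as one member of a kinase panel screen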
Chain of ALK tyrosine kinase receptor (Q9UM73 whole entry): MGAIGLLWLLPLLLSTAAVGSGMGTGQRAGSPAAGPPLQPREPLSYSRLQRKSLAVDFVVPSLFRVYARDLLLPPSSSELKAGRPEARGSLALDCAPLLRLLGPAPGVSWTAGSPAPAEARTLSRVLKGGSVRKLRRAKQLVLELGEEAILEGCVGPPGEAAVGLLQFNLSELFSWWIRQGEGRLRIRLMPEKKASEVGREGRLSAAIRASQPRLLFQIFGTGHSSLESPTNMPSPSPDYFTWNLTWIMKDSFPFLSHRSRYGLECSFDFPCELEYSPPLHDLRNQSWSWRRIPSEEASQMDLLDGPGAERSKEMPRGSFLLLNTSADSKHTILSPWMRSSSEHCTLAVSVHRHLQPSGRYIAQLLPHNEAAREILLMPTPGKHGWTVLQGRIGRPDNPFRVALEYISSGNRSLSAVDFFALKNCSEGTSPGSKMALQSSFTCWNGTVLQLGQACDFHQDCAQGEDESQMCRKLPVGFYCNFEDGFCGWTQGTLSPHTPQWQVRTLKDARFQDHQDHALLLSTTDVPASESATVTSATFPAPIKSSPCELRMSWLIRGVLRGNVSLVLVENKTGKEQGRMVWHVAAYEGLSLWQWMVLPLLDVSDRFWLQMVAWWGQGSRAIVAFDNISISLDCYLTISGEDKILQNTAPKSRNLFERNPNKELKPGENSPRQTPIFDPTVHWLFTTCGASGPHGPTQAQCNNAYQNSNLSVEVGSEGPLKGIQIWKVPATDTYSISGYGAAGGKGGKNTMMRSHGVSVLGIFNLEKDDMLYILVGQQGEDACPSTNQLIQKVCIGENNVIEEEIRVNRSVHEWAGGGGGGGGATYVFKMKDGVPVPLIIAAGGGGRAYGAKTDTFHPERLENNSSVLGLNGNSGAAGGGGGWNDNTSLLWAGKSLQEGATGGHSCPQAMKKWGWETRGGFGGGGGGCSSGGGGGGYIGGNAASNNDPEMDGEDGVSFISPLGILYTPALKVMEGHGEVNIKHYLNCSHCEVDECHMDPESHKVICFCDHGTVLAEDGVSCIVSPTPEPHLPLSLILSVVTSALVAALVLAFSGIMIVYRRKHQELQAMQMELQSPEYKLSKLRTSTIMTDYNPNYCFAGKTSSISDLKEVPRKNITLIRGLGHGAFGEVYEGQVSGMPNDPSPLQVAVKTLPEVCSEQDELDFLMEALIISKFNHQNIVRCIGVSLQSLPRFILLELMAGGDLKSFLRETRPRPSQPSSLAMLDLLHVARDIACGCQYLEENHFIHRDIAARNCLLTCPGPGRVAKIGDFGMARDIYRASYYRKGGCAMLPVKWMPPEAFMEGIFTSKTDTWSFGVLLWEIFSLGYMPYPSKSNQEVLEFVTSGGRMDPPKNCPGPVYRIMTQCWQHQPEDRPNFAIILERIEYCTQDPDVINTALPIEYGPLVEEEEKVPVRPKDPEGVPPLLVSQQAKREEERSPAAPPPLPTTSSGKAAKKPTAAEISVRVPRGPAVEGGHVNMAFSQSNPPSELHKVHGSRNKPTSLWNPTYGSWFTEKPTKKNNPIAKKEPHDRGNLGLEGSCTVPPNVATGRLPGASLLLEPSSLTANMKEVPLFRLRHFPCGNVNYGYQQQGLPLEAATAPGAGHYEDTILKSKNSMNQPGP

Aurora kinase A = target: T6, Aurora kinase A (Homo sapiens, UniProt O14965); assay type: functional;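 further: value from the Navigating the Kinome kinase panel profiling, panel entry STK6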
T6 sequence (O14965 whole entry): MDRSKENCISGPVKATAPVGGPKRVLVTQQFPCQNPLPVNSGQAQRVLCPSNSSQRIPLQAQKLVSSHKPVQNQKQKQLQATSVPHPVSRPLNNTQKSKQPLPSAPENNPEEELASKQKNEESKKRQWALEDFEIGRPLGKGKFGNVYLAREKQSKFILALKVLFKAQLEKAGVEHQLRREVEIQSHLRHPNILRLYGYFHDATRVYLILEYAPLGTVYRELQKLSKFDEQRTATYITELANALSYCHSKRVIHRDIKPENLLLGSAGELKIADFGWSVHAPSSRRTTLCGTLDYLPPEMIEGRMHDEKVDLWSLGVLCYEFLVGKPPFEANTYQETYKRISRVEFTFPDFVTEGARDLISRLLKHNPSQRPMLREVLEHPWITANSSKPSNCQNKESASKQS

Aurora kinase B = Aurora kinase B (Homo sapiens, UniProt Q96GD4); assay type: functional
Chain of Aurora kinase B (Q96GD4 whole entry): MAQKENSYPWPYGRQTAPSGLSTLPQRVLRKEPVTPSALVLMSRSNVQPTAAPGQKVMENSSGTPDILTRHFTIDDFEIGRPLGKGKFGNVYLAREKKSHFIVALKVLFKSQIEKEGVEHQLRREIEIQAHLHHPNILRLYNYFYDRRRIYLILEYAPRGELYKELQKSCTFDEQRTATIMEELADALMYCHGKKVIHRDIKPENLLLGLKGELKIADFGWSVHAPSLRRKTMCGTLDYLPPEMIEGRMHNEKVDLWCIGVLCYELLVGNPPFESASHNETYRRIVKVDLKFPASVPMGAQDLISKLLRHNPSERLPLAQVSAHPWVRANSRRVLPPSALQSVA

Insulin-degrading enzyme [7] = target: T7, Insulin-degrading enzyme (Homo sapiens, UniProt P14735); assay: recombinant IDE activation, cell-free – biochemical, fluorescence polarization, counter-screen for IDE activator project, dose response (AID 588681)
T7 sequence (P14735 whole entry): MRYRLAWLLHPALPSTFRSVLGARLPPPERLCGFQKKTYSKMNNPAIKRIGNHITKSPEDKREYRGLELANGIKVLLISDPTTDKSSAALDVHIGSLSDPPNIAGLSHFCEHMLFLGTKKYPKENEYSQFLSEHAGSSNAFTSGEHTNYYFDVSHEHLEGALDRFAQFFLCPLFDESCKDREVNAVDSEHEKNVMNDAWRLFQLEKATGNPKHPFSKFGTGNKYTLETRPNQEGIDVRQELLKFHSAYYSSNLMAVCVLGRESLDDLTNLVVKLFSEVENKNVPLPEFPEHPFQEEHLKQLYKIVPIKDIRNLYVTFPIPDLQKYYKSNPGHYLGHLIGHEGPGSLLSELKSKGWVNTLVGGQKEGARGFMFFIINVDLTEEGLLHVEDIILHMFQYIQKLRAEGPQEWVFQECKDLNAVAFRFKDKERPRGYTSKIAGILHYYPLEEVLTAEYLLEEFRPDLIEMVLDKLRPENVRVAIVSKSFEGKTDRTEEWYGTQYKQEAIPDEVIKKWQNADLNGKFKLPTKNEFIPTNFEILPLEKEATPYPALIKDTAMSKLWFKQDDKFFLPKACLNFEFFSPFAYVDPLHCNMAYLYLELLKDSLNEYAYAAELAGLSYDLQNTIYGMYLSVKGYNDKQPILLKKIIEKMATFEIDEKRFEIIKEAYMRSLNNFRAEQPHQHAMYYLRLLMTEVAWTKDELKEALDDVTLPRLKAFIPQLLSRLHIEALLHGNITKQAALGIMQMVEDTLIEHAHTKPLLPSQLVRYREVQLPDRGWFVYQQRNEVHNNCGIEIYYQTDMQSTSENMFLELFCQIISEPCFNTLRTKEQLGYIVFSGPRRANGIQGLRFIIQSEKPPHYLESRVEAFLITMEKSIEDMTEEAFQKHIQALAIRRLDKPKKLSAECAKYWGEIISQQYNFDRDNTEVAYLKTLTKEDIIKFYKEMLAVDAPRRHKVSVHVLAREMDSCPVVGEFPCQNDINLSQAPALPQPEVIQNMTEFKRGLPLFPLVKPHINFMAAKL

Insulin-degrading enzyme [8] = target: T7, Insulin-degrading enzyme; assay: cellular IDE activation of Abeta substrate cleavage – fluorescence polarization, HEK cells, dose response (AID 588439); assay type: functional, cell-based
HEK293 [9] = assay: membrane integrity loss in HEK cells – cell-based, fluorescence, cytotoxicity control for IDE activator project, dose response (AID 588440); assay type: functional; settings: Homo sapiens;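 further: cytotoxicity by LDH release measuring loss of membrane integrity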
HEK293 [10] = assay: optical interference in Abeta FP readout, dose response, artefact control for IDE activator project, biochemical, fluorescence polarization (AID 588442); assay type: functional, cell-based; settings: Homo sapiens
[11] = target: G-protein coupled receptor 35 (Homo sapiens, UniProt Q9HC97); assay: inhibition of zaprinast-stimulated GPR35 beta-arrestin translocation – imaging, U2OS, beta-arrestin-GFP, zaprinast agonist, primary screen (AID 2058); assay type: functional;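 further: antagonist potency meaning inhibition of agonist-induced arrestin redistribution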
Chain of G-protein coupled receptor 35 (Q9HC97 whole entry): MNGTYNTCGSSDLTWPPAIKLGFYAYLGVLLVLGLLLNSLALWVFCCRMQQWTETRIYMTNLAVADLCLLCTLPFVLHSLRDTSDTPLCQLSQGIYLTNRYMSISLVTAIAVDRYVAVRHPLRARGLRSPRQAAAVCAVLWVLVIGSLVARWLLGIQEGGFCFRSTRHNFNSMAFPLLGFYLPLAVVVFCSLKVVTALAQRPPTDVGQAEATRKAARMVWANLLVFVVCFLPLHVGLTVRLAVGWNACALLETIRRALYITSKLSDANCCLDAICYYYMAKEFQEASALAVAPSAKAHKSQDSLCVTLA

Beta-lactamase [12] = target: Beta-lactamase (Pseudomonas aeruginosa, UniProt Q79MP6);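 further: biochemical dose-response test of metallo-beta-lactamase enzyme inhibition, read out by epi-absorbance; purified recombinant IMP-1 metallo-beta-lactamase with nitrocefin as substrate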
Chain of Beta-lactamase (Pseudomonas aeruginosa, UniProt Q79MP6) (Q79MP6 whole entry): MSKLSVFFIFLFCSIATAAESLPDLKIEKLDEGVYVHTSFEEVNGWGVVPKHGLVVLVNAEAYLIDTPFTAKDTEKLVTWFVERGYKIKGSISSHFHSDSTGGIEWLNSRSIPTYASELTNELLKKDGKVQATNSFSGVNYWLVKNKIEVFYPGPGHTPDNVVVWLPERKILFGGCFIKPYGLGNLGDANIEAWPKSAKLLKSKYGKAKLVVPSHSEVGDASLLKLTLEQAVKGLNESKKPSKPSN

[13] = target: T8, Calpain-2 catalytic subunit (Sus scrofa, UniProt P43367); assay: m-calpain protease blockers, concentration series – biochemical, fluorogenic peptide substrate, dose response (AID 1420); assay type: functional
T8 sequence (P43367 whole entry): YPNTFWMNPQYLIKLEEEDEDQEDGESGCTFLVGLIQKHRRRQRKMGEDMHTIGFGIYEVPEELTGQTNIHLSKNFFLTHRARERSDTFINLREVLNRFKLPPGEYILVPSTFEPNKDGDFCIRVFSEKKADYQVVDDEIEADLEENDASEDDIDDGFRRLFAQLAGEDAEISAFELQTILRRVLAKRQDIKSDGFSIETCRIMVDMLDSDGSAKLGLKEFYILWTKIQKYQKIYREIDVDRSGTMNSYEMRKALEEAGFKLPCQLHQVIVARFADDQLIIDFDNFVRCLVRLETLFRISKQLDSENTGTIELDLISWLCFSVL

Beta-lactamase [14] = target: Beta-lactamase (Salmonella choleraesuis (strain SC-B67), UniProt Q5J463)
Chain of Beta-lactamase (Salmonella choleraesuis (strain SC-B67), UniProt Q5J463) (Q5J463 whole entry): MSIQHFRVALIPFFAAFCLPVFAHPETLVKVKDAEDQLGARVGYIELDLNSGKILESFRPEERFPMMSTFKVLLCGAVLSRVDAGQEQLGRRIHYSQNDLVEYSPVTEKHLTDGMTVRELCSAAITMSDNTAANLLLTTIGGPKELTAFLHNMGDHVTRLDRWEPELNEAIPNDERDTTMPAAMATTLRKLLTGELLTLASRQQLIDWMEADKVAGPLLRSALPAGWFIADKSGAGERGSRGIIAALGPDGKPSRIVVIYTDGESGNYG

[15] = mitochondrial function rescue without frataxin homolog – Friedreich's ataxia, plus single-dose screen, dose response (AID 1465); assay type: functional;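 further: yeast depleted of Yfh1p frataxin homolog grown on glycerol needing respiration; WST-1 tetrazolium dye reduction as measure of cellular dehydrogenase metabolic activity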

## CC(=O)NC1=C(N(C)C2CCS(=O)(=O)C2)C(=O)c2ccccc2C1=O (configuration not stated)
Caspase-3
  IC50: 17 µM (active)
[1]
  IC50: 13 µM (active)
[2]
  IC50: 5.25 µM (active)
[3]
  IC50: 13.4 µM (active)
[4]
  AC50: 21.2 µM (active)
[5]
  IC50: 22 µM (active)

## NC1CCN(C(=O)c2ccc3c(c2)[nH]c(=O)c2cccn23)CC1
[6]
  Ki: > 3.16 µM (inactive)
Aurora kinase A
  Ki: > 2 µM (inactive)
Aurora kinase B
  Ki: 0.158 µM (active)

## CC(=O)N1CCc2cc(S(=O)(=O)NCCC(=O)N3CCN(Cc4ccccc4)CC3)ccc21
Insulin-degrading enzyme [7]
  EC50: > 54.7 µM (inactive)
Insulin-degrading enzyme [8]
  EC50: > 54.7 µM (inactive)
HEK293 [9]
  IC50: > 89.2 µM (inactive)
HEK293 [10]
  EC50: > 54.7 µM (inactive)

## CCN1CCN(C2=CC3=CC(=C(C#N)C#N)CCC3CC2)CC1 (configuration not stated)
[11]
  IC50: 1.67 µM (active)
Beta-lactamase [12]
  IC50: 4.22 µM (active)
[13]
  IC50: 30.6 µM (not active)
Beta-lactamase [14]
  IC50: 3.08 µM (active)
[15]
  EC50: > 100 µM (active)
Insulin-degrading enzyme [7]
  EC50: > 54.7 µM (inactive)
Insulin-degrading enzyme [8]
  EC50: > 54.7 µM (inactive)
HEK293 [9]
  IC50: > 89.2 µM (inactive)
HEK293 [10]
  EC50: > 54.7 µM (inactive)
